According to patent publication US12600714B2, “Substituted pyrazinecarboxamide compounds for treating diseases related to EGFR mutation” (WIGEN BIOMEDICINE TECHNOLOGY (SHANGHAI) CO., LTD., priority 2020, dated 2026):

Test system: EGFR (del19/T790M/C797S)
Experiment: HTRF inhibitory activity assay against EGFR (del19/T790M/C797S) enzyme
Type: biochemical
Experimental: Inhibitory Activity Assay of the Compounds Disclosed Herein Against EGFR (del19/T790M/C797S), EGFR (L858R/T790M/C797S) or EGFR (WT) Enzymes
The inhibitory effects of the compounds against EGFR (del19/T790M/C797S), EGFR (L858R/T790M/C797S) or EGFR (WT) enzyme activity was determined by using HTRF. The procedures are as follows:
The WT or mutant EGFR proteins were incubated with a serially diluted compounds at 28° C. for 10 min followed by addition of biotin-labeled general tyrosine kinase (TK) substrate and ATP. The mixture was incubated at room temperature for 40 min for reaction. After the termination of the reaction, an Eu3+-Cryptate-labeled antibody against TK and streptavidin-XL665 were added and the mixture was incubated at room temperature for 60 min. The luminescences at 615 nm and 665 nm were detected and the ratio of 665/615 was calculated to quantify the level of TK substrate phosphorylation. Inhibition % and IC50 of the compounds were calculated relative to the control group.

Row | Compound | EGFR (del19/T790M/C797S) inhibition (%) (0.3 nM compound)
1 | Cc1cc(-c2nc(C(N)=O)c(Nc3ccc(N4CCC(N5CCN(C)CC5)CC4)c(C)c3)nc2NC2CCOCC2)ccn1 [compound 154] | ++ (++ indicates an inhibition from 20% to 50%)
2 | COc1cc(N2CCC(N3CCN(C)CC3)CC2)ccc1Nc1nc(NC2CCOCC2)c(-c2ccccc2)nc1C(N)=O [compound 113] | + (+ indicates an inhibition less than or equal to 20%)
3 | CN1CCN(C2CCN(c3ccc(Nc4nc(NC5CCOCC5)c(-c5ccccc5O)nc4C(N)=O)cc3)CC2)CC1 [compound 99] | + (+ indicates an inhibition less than or equal to 20%)
4 | CN1CCN(C2CCN(c3ccc(Nc4nc(N[C@@H]5CCC[C@@H]5O)c(-c5ccccc5)nc4C(N)=O)cc3)CC2)CC1 [compound 133] | ++ (++ indicates an inhibition from 20% to 50%)
5 | CN1CCN(C2CCN(c3ccc(Nc4nc(NC5COC5)c(-c5ccnc6[nH]ccc56)nc4C(N)=O)cc3)CC2)CC1 [compound 596] | +++ (+++ indicates an inhibition greater than 50%.)
6 | CN1CCN(C2CCN(c3ccc(Nc4nc(NC5CCOCC56CC6)c(-c5ccccn5)nc4C(N)=O)cc3)CC2)CC1 (centres unmarked) [compound 255] | ++ (++ indicates an inhibition from 20% to 50%)
7 | CN1CCN(C2CCN(c3ccc(Nc4nc(NC5CCOCC5)c(-c5ccc(N)cc5)nc4C(N)=O)cc3)CC2)CC1 [compound 95] | ++ (++ indicates an inhibition from 20% to 50%)
8 | CN1CCN(C2CCN(c3ccc(Nc4nc(N[C@H]5CCOC5)c(-c5ccncc5)nc4C(N)=O)cc3F)CC2)CC1 [compound 645] | +++ (+++ indicates an inhibition greater than 50%.)
9 | Cc1cnccc1-c1nc(C(N)=O)c(Nc2ccc(N3CCC(N4CCN(C)CC4)CC3)cc2)nc1NC1CCOCC1 [compound 56] | + (+ indicates an inhibition less than or equal to 20%)
10 | CN1CCN(C2CCN(c3ccc(Nc4nc(N[C@H]5C[C@H](O)C5)c(-c5cccc6[nH]ccc56)nc4C(N)=O)cc3F)CC2)CC1 [compound 534] | +++ (+++ indicates an inhibition greater than 50%.)
11 | CN1CCN(C2CCN(c3ccc(Nc4nc(NC5CCOCC5)c(-c5ccsc5)nc4C(N)=O)cc3)CC2)CC1 [compound 93] | ++ (++ indicates an inhibition from 20% to 50%)
12 | CN1CCN(C2CCN(c3ccc(Nc4nc(NC5CC6(COC6)C5)c(-c5ccnc6[nH]ccc56)nc4C(N)=O)cc3)CC2)CC1 [compound 629] | +++ (+++ indicates an inhibition greater than 50%.)
13 | CN1CCN(C2CCN(c3ccc(Nc4nc(NC5CCOCC5)c(C5=CCNCC5)nc4C(N)=O)cc3)CC2)CC1 [compound 109] | + (+ indicates an inhibition less than or equal to 20%)
14 | CN1CCN(C2CCN(c3ccc(Nc4nc(N[C@@H]5CCOC5)c(-c5ccncc5)nc4C(N)=O)cc3)CC2)CC1 [compound 642] | +++ (+++ indicates an inhibition greater than 50%.)
15 | CN1CCN(C2CCN(c3ccc(Nc4nc(NC5CCOCC5)c(-c5cccc(Cl)c5)nc4C(N)=O)cc3)CC2)CC1 [compound 61] | ++ (++ indicates an inhibition from 20% to 50%)
16 | CN1CCN(C2CCN(c3ccc(Nc4nc(NC5CCOCC5)c(-c5ccn(C)n5)nc4C(N)=O)cc3)CC2)CC1 [compound 49] | + (+ indicates an inhibition less than or equal to 20%)
17 | Cc1cc(Nc2nc(NC3CC4(CCOCC4)C3)c(-c3ccncc3)nc2C(N)=O)ccc1N1CCC(N2CCN(C)CC2)CC1 [compound 379] | ++ (++ indicates an inhibition from 20% to 50%)
18 | CN1CCN(C2CCN(c3ccc(Nc4nc(NC5CCOCC5)c(-c5ccnc6[nH]ccc56)nc4C(N)=O)cc3F)CC2)CC1 [compound 520] | +++ (+++ indicates an inhibition greater than 50%.)
19 | CN1CCN(C2CCN(c3ccc(Nc4nc(NC5CCOCC5)c(-c5cccc(N)c5)nc4C(N)=O)cc3)CC2)CC1 [compound 92] | ++ (++ indicates an inhibition from 20% to 50%)
20 | NC(=O)c1nc(-c2ccccn2)c(NC2CCOC3(CC3)C2)nc1Nc1ccc(N2CCC(N3CCN(C4CC4)CC3)CC2)cc1 (centres unmarked) [compound 264] | ++ (++ indicates an inhibition from 20% to 50%)
21 | CN1CCN(C2CCN(c3ccc(Nc4nc(N[C@@H]5CCOC5)c(-c5ccncc5)nc4C(N)=O)cc3F)CC2)CC1 [compound 643] | +++ (+++ indicates an inhibition greater than 50%.)

Row | Compound | EGFR (del19/T790M/C797S) inhibition (%) (0.3 nM compound)
22 | COc1ccccc1-c1nc(C(N)=O)c(Nc2ccc(N3CCC(N4CCN(C)CC4)CC3)cc2)nc1NC1CCOCC1 [compound 42] | + (+ indicates an inhibition less than or equal to 20%)
23 | COc1ccc(-c2nc(C(N)=O)c(Nc3ccc(N4CCC(N5CCN(C)CC5)CC4)cc3)nc2NC2CCOCC2)cc1 [compound 45] | + (+ indicates an inhibition less than or equal to 20%)
24 | CN1CCN(C2CCN(c3ccc(Nc4nc(N[C@@H]5CCOC5)c(-c5ccccc5)nc4C(N)=O)cc3)CC2)CC1 [compound 66] | + (+ indicates an inhibition less than or equal to 20%)
25 | CN1CCN(C2CCN(c3ccc(Nc4nc(NC5CC5)c(-c5ccnc6[nH]ccc56)nc4C(N)=O)cc3)CC2)CC1 [compound 610] | +++ (+++ indicates an inhibition greater than 50%.)
26 | CN(C)CCNc1nc(Nc2ccc(N3CCC(N4CCN(C)CC4)CC3)cc2)c(C(N)=O)nc1-c1ccccc1 [compound 28] | + (+ indicates an inhibition less than or equal to 20%)
27 | CC(C)Nc1nc(Nc2ccc(N3CCC(N4CCN(C)CC4)CC3)c(F)c2)c(C(N)=O)nc1-c1ccncc1 [compound 635] | +++ (+++ indicates an inhibition greater than 50%.)
28 | CN1CCN(C2CCN(c3ccc(Nc4nc(NC5CCOCC5)c(-c5ccnn5C)nc4C(N)=O)cc3)CC2)CC1 [compound 50] | + (+ indicates an inhibition less than or equal to 20%)
29 | CN1CCN(C2CCN(c3ccc(Nc4nc(NC5COC5)c(-c5cccc6[nH]ccc56)nc4C(N)=O)cc3F)CC2)CC1 [compound 595] | +++ (+++ indicates an inhibition greater than 50%.)
30 | CN1CCN(C2CCN(c3ccc(Nc4nc(NC5CCC5)c(-c5ccncc5)nc4C(N)=O)cc3F)CC2)CC1 [compound 639] | +++ (+++ indicates an inhibition greater than 50%.)
31 | CN1CCN(C2CCN(c3ccc(Nc4nc(N5CCC(O)C5)c(-c5ccccc5)nc4C(N)=O)cc3)CC2)CC1 (centres unmarked) [compound 29] | ++ (++ indicates an inhibition from 20% to 50%)
32 | CN1CCN(C2CCN(c3ccc(Nc4nc(NC5CCOCC5)c(-c5cccc(NS(C)(=O)=O)c5)nc4C(N)=O)cc3)CC2)CC1 [compound 90] | + (+ indicates an inhibition less than or equal to 20%)
33 | CN1CCN(C2CCN(c3ccc(Nc4nc(NCC(C)(C)O)c(-c5cccc6[nH]ccc56)nc4C(N)=O)cc3F)CC2)CC1 [compound 537] | +++ (+++ indicates an inhibition greater than 50%.)
34 | CN1CCN(C2CCN(c3ccc(Nc4nc(NCCC(C)(C)O)c(-c5ccccc5)nc4C(N)=O)cc3)CC2)CC1 [compound 22] | + (+ indicates an inhibition less than or equal to 20%)
35 | CN1CCN(C2CCN(c3ccc(Nc4nc(NC5CCOCC5)c(-c5cccc(C(F)F)c5)nc4C(N)=O)cc3)CC2)CC1 [compound 105] | + (+ indicates an inhibition less than or equal to 20%)
36 | CN(C)CCCNc1nc(Nc2ccc(N3CCC(N4CCN(C)CC4)CC3)cc2)c(C(N)=O)nc1-c1ccccc1 [compound 117] | + (+ indicates an inhibition less than or equal to 20%)
37 | CN1CCN(C2CCN(c3ccc(Nc4nc(NC5CCOCC5)c(-c5ccc(C#N)cc5)nc4C(N)=O)cc3)CC2)CC1 [compound 53] | + (+ indicates an inhibition less than or equal to 20%)
38 | CN1CCN(C2CCN(c3ccc(Nc4nc(NC5CCOCC5)c(-c5cc[nH]n5)nc4C(N)=O)cc3F)CC2)CC1 [compound 619] | ++ (++ indicates an inhibition from 20% to 50%)
39 | CN1CCN(C2CCN(c3ccc(Nc4nc(NC5CCOCC5)c(-c5ccccc5Cl)nc4C(N)=O)cc3)CC2)CC1 [compound 63] | + (+ indicates an inhibition less than or equal to 20%)
40 | CN1CCN(C2CCN(c3ccc(Nc4nc(O[C@@H]5CCOC5)c(-c5ccccc5)nc4C(N)=O)cc3)CC2)CC1 [compound 16] | + (+ indicates an inhibition less than or equal to 20%)
41 | CC(C)Nc1nc(Nc2ccc(N3CCC(N4CCN(C)CC4)CC3)cc2)c(C(N)=O)nc1-c1ccnc2[nH]ccc12 [compound 609] | +++ (+++ indicates an inhibition greater than 50%.)
